Counter-ions that a name gives are not always drawn.
Assay: in vitro
Conditions: rat, gh3-tre-luc cells, AC50 (uM) modified / 1000
Molecule CN1CCC[C@H]1c1cccnc1 [Nicotine] has a CC50 at 24 h of over 90 µM.
O=C(CCN1CC1)OCC(CO)(COC(=O)CCN1CC1)COC(=O)CCN1CC1 [3-{[3-(Aziridin-1-yl)propanoyl]oxy}-2-({[3-(aziridin-1-yl)propanoyl]oxy}methyl)-2-(hydroxymethyl)propyl 3-(aziridin-1-yl)propanoate] showed a CC50 at 24 h of over 90 µM.
With Cc1ccc(C(C)(C)c2ccc(C)cc2)cc1 [2,2-Di-4-tolylpropane] the CC50 at 24 h was over 50 µM.
c1ccc2[nH]cnc2c1 [Benzimidazole] gave a CC50 at 24 h of over 90 µM.
COc1ccc(C(=O)CCC(=O)O)c2ccccc12 [Menbutone] showed a CC50 at 24 h of over 50 µM.
For Nc1ncn([C@H]2C[C@H](O)[C@@H](CO)O2)c(=O)n1 [Decitabine], the CC50 at 24 h was over 50 µM.
For NNC(N)=O [Semicarbazide hydrochloride], the CC50 at 24 h was over 90 µM.
C=CCN(CC=C)CC=C [Triallylamine] gave a CC50 at 24 h of over 90 µM.
O=C(O)CCC/C=C\C[C@H]1[C@H](/C=C/[C@H](O)COc2cccc(Cl)c2)[C@@H](O)C[C@H]1O [Cloprostenol sodium] showed a CC50 at 24 h of over 50 µM.
In the case of C[C@]12CCC(=O)C=C1CC[C@H]1[C@@H]3CC[C@](O)(C(=O)CO)[C@@]3(C)C[C@H](O)[C@@]12F [Fludrocortisone], the CC50 at 24 h is reported as over 50 µM.
CCCCC1CCCCC(=O)O1 (stereo not shown) [epsilon-Decalactone] gave a CC50 at 24 h of over 90 µM.
With CCCCCCCCCCCCC1CO1 (stereo not shown) [1,2-Epoxytetradecane] the CC50 at 24 h was over 90 µM.
CC(O)COc1ccccc1 (stereo not shown) [1-Phenoxy-2-propanol] gave a CC50 at 24 h of over 90 µM.
Work on O=C(O)[C@@H]1[C@H](C(=O)O)[C@H]2CC[C@@H]1O2 [Endothal] yielded a CC50 at 24 h of over 90 µM.
Nc1nc(N)c2nc(CNc3ccc(C(=O)N[C@@H](CCC(=O)O)C(=O)O)cc3)cnc2n1 [4-Aminofolic acid] showed a CC50 at 24 h of over 50 µM.
Cc1cc(C(=C2C=CC(=Nc3ccc(S(=O)(=O)O)cc3)C=C2)c2ccc(Nc3ccc(S(=O)(=O)O)cc3)cc2)cc(S(=O)(=O)O)c1N [C.I. Acid Blue 22] showed a CC50 at 24 h of over 60 µM.
Work on CCCCC[C@H](O)/C=C/[C@H]1[C@H](O)CC(=O)[C@@H]1CCCCCCC(=O)O [Alprostadil] yielded a CC50 at 24 h of over 20 µM.
CO[C@H]1C[C@@H]2CC[C@@H](C)[C@@](O)(O2)C(=O)C(=O)N2CCCC[C@H]2C(=O)O[C@H]([C@H](C)C[C@@H]2CC[C@@H](OC(=O)C(C)(CO)CO)[C@H](OC)C2)CC(=O)[C@H](C)/C=C(\C)[C@@H](O)[C@@H](OC)C(=O)[C@H](C)C[C@H](C)/C=C/C=C/C=C/1C [Temsirolimus] gave a CC50 at 24 h of over 50 µM.
For CC1(C)CC(O)CC(C)(C)N1[O] [4-Hydroxy-2,2,6,6-tetramethylpiperidin-1-yl)oxidanyl], the CC50 at 24 h was over 90 µM.
Work on C[C@@H]1O[C@@H]1P(=O)(O)O [Fosfomycin calcium] yielded a CC50 at 24 h of over 50 µM.
For Fc1ccc([C@@]2(Cn3cncn3)O[C@@H]2c2ccccc2Cl)cc1 (racemic) [Epoxiconazole], the CC50 at 24 h was over 90 µM.
Molecule CC[C@H](CC[C@@H](C)[C@H]1CC[C@H]2[C@@H]3CC=C4C[C@@H](O)CC[C@]4(C)[C@H]3CC[C@]12C)C(C)C [beta-Sitosterol] has a CC50 at 24 h of over 50 µM.
Molecule C=CCc1cc(OC)c(O)c(C(=O)NCCO)c1 [Alibendol] has a CC50 at 24 h of over 50 µM.
CC(C)CCCO [4-Methylpentan-1-ol] gave a CC50 at 24 h of over 90 µM.
For C=CC(OCC)OCC [Acrolein diethylacetal], the CC50 at 24 h was over 90 µM.
Work on N[C@@H](Cc1c[nH]c2ccc(O)cc12)C(=O)O [L-5-Hydroxytryptophan] yielded a CC50 at 24 h of over 90 µM.
Nc1c(Cl)cc([N+](=O)[O-])cc1Cl [Dicloran] showed a CC50 at 24 h of over 90 µM.
For Nc1nc2nc[nH]c2c(=S)[nH]1 [6-Thioguanine], the CC50 at 24 h was over 90 µM.
Molecule CC(C)(C)OC(=O)c1ccc(O)cc1 [tert-Butyl 4-hydroxybenzoate] has a CC50 at 24 h of over 90 µM.
With CCNS(=O)(=O)c1ccc(C)cc1 [N-Ethyl-4-methylbenzenesulfonamide] the CC50 at 24 h was over 90 µM.
Work on Cc1nc(-c2ccc3c(c2)CCN(CCC2CCC(NC(=O)/C=C/c4ccc(F)cc4)CC2)CC3)no1 (stereo not shown) [SB413217A] yielded a CC50 at 24 h of 8.41 µM.
Molecule N[C@@H](Cc1ccccc1)C(=O)O [Phenylalanine] has a CC50 at 24 h of over 50 µM.
NC(N)=Nc1nc(CSCCC(N)=NS(N)(=O)=O)cs1 [Famotidine] gave a CC50 at 24 h of over 90 µM.
CCOC(=O)C(C)C(C)=O (stereo not shown) [Ethyl-2-methyl acetoacetate] gave a CC50 at 24 h of over 90 µM.
C#C[C@]1(O)CC[C@H]2[C@@H]3CCC4=C(CCC(=O)C4)[C@H]3CC[C@@]21C [Norethynodrel] gave a CC50 at 24 h of over 20 µM.
Molecule CCCCCCCC[P+](CCCCCCCC)(CCCCCCCC)CCCCCCCC [Tetraoctylphosphonium bromide] has a CC50 at 24 h of 4.22 µM.
With CC(C)=CCCC(C)C=O (stereo not shown) [2,6-Dimethylhept-5-enal] the CC50 at 24 h was over 90 µM.
Cc1cc(O)c(C(=O)N[C@@H](C(=O)N[C@@H]2C(=O)N3C(C(=O)O)=C(CSc4nnnn4C)CS[C@H]23)c2ccc(O)cc2)cn1 [Cefpiramide acid] showed a CC50 at 24 h of over 50 µM.
For CCOC(=O)c1ccccc1C [Ethyl 2-methylbenzoate], the CC50 at 24 h was over 90 µM.
CCN(CC)CCNC(=O)COc1ccc(Cl)cc1 [Clofexamide] gave a CC50 at 24 h of over 50 µM.
With O=C(O)CC(=O)C(=O)O [2-Oxobutanedioic acid] the CC50 at 24 h was over 90 µM.
In the case of C=CC(C)(O)CC/C=C(/C)CCC=C(C)C (stereo not drawn) [cis-Nerolidol], the CC50 at 24 h is reported as over 90 µM.
In the case of c1ccc(-c2ccc(C(c3ccccc3)n3ccnc3)cc2)cc1 (stereo not shown) [Bifonazole], the CC50 at 24 h is reported as 45.2 µM.
Molecule CC1CCC(C(C)(C)S)C(=O)C1 (stereo not shown) [p-Mentha-8-thiol-3-one] has a CC50 at 24 h of over 90 µM.
CO/N=C(\C(=O)N[C@@H]1C(=O)N2C(C(=O)O)=C(C[N+]3(C)CCCC3)CS[C@H]12)c1csc(N)n1 [Cefepime chloride hydrochloride hydrate] gave a CC50 at 24 h of over 50 µM.
Work on CC(=O)Nc1ccccc1 [Acetanilide] yielded a CC50 at 24 h of over 90 µM.
CCC1=C(C)CN(C(=O)NCCc2ccc(S(=O)(=O)NC(=O)N[C@H]3CC[C@H](C)CC3)cc2)C1=O [Glimepiride] showed a CC50 at 24 h of over 50 µM.
For CCCCCC#CC(=O)OC [Methyl 2-octynoate], the CC50 at 24 h was over 90 µM.
For CCn1cc(C(=O)O)c(=O)c2cnc(N3CCNCC3)nc21 [Pipemidic acid], the CC50 at 24 h was over 20 µM.
With C[N+]1(CC2COC(c3ccccc3)(c3ccccc3)O2)CCCCC1 (stereo not shown) [Anacolin] the CC50 at 24 h was over 50 µM.
Molecule CN1CCN=C(c2ccccc2)c2cc(Cl)ccc21 [Medazepam] has a CC50 at 24 h of over 50 µM.
Molecule C[C@H](CCC(=O)O)[C@H]1CC[C@H]2[C@@H]3[C@H](O)C[C@@H]4C[C@H](O)CC[C@]4(C)[C@H]3C[C@H](O)[C@]12C [Cholic acid piperazine (1:1)] has a CC50 at 24 h of over 50 µM.
For CCCCC(CC)COC(=O)CCCCCCCCC(=O)OCC(CC)CCCC (stereo not shown) [Bis(2-ethylhexyl) decanedioate], the CC50 at 24 h was over 90 µM.
Molecule O=C(O)CN(CCN(CC(=O)O)CC(=O)O)CCN(CC(=O)O)CC(=O)O [Pentetic acid] has a CC50 at 24 h of 25 µM.
CCC(=O)O[C@@H]1CC(=O)O[C@H](C)C/C=C/C=C/[C@H](O)[C@H](C)C[C@H](CC=O)[C@H](O[C@@H]2O[C@H](C)[C@@H](O[C@H]3C[C@@](C)(O)[C@@H](OC(=O)CC)[C@H](C)O3)[C@H](N(C)C)[C@H]2O)[C@H]1OC [Midecamycin] gave a CC50 at 24 h of over 20 µM.
CC1CCC(=O)C1=O (stereo not shown) [3-Methyl-1,2-cyclopentanedione] showed a CC50 at 24 h of over 100 µM.
With CC(C)CCC(=O)CCC(C)C [2,8-Dimethylnonan-5-one] the CC50 at 24 h was over 90 µM.
Molecule Nc1nc(=O)[nH]cc1F [Flucytosine] has a CC50 at 24 h of over 20 µM.
In the case of CC1(C)OC[C@@H]2O[C@@]3(C(=O)O)OC(C)(C)O[C@H]3[C@@H]2O1 [Dikegulac], the CC50 at 24 h is reported as over 90 µM.
In the case of CCc1ccccc1 [Ethylbenzene], the CC50 at 24 h is reported as over 90 µM.
In the case of Cc1cc(N)c(S(=O)(=O)O)cc1Cl [2-Amino-5-chloro-4-methylbenzenesulfonic acid], the CC50 at 24 h is reported as over 90 µM.
With CCCOc1ccc(S(=O)(=O)N2CCN(CC)CC2)cc1-c1nc2c(CC)n(Cc3ccccn3)nc2c(=O)[nH]1 [UK-343664] the CC50 at 24 h was over 90 µM.
For CN1C(=O)c2ccc([N+](=O)[O-])cc2C1=O [N-Methyl-4-nitrophthalimide], the CC50 at 24 h was over 90 µM.
For CCc1ccc(C)cc1 [4-Ethyltoluene], the CC50 at 24 h was over 90 µM.
With CC(COc1ccccc1)NN (stereo not shown) [Phenoxypropazine] the CC50 at 24 h was over 50 µM.
For O=CCc1ccccc1 [Phenylacetaldehyde], the CC50 at 24 h was over 90 µM.
CCCCCC[C@@H](O)C/C=C\CCCCCCCC(=O)OC [Methyl ricinoleate] gave a CC50 at 24 h of over 90 µM.
CCOC(=O)[C@H](CCc1ccccc1)N[C@@H](C)C(=O)N(CC(=O)O)C1Cc2ccccc2C1 [Delapril hydrochloride] gave a CC50 at 24 h of over 50 µM.
CN(C)C(=O)CNC(=O)Cc1ccccc1 [N,N-Dimethyl-2-(2-phenylacetamido)acetamide] showed a CC50 at 24 h of over 50 µM.
With CCNC1(c2cccs2)CCCCC1=O (stereo not shown) [Tiletamine hydrochloride] the CC50 at 24 h was over 20 µM.
CCCCCCCCCO [1-Nonanol] showed a CC50 at 24 h of over 90 µM.
For CCOC(=O)c1c(C)n(C)c2ccc(O)cc12 [Mecarbinate], the CC50 at 24 h was over 50 µM.

Same assay, conditions: rat, gh3-tre-luc cells, AC50 (uM) modified / 1000, Tox21_110001=Tox21_111751; viability, 1 nM T3 present, 24 h
Work on COC1=CC=C2[C@H]3Cc4ccc(OC)c5c4[C@@]2(CCN3C)[C@H]1O5 [Thebaine] yielded a CC50 at 24 h of over 20 µM.

Same assay, conditions: rat, gh3-tre-luc cells, AC50 (uM) modified / 1000, Tox21_110001=Tox21_112083; viability, 1 nM T3 present, 24 h
Work on O=c1[nH]c(=O)n(Cl)c(=O)n1Cl [Sodium dichloroisocyanurate] yielded a CC50 at 24 h of over 50 µM.

Same assay, conditions: rat, gh3-tre-luc cells, AC50 (uM) modified / 1000, Tox21_110001=Tox21_112863; viability, 1 nM T3 present, 24 h
COC1=CC=C2[C@H]3Cc4ccc(OC)c5c4[C@@]2(CCN3C)[C@H]1O5 [Thebaine] gave a CC50 at 24 h of over 90 µM.

Same assay, conditions: rat, gh3-tre-luc cells, AC50 (uM) modified / 1000, Tox21_110001=Tox21_201334; viability, 1 nM T3 present, 24 h
With CN(C)C(=O)Cl [Dimethylcarbamoyl chloride] the CC50 at 24 h was over 90 µM.

Same assay, conditions: rat, gh3-tre-luc cells, AC50 (uM) modified / 1000, Tox21_110001=Tox21_201601; viability, 1 nM T3 present, 24 h
O=c1[nH]c(=O)n(Cl)c(=O)n1Cl [Sodium dichloroisocyanurate] gave a CC50 at 24 h of over 90 µM.

Same assay, conditions: rat, gh3-tre-luc cells, AC50 (uM) modified / 1000, Tox21_110001=Tox21_201663; viability, 1 nM T3 present, 24 h
For CN(C)N=O [N-Nitrosodimethylamine], the CC50 at 24 h was over 90 µM.

Same assay, conditions: rat, gh3-tre-luc cells, AC50 (uM) modified / 1000, Tox21_110001=Tox21_301414; viability, 1 nM T3 present, 24 h
With CCC(C)(C#N)N=NC(C)(C#N)CC (stereo not shown) [2,2'-Azobis(2-methylbutanenitrile)] the CC50 at 24 h was over 90 µM.

Source: paper PMC6792352, “Limited Chemical Structural Diversity Found to Modulate Thyroid Hormone Receptor in the Tox21 Chemical Library” (Environmental Health Perspectives, 2019)
